Data as given in PubChem BioAssay (NCI).
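Method: 48-hour compound exposure of cells in 96-well plates, five concentrations, linear interpolation of endpoints. At the TGI there is no net growth.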

Experiments:
Experiment in all cases: NCI tumour cell line growth inhibition, 48 h
[1] = system: HT29 colon
[2] = system: MDA-MB-435
[3] = system: MOLT-4 leukemia
[4] = system: OVCAR-8 ovarian
[5] = system: SF-295 CNS
[6] = system: SN12C renal
[7] = system: T-47D breast
[8] = system: HCT-15 colon
[9] = system: NCI-H460 lung
[10] = system: HS 578T breast

COc1cc([C@@H]2c3cc4c(cc3[C@@H](Nc3ccc(Cl)cc3C(=O)c3ccccc3Cl)[C@H]3COC(=O)[C@H]23)OCO4)cc(OC)c1OC
TGI [1]: > 100 µM | TGI [2]: 0.397 µM | TGI [3]: > 100 µM | TGI [4]: > 36.2 µM | TGI [5]: > 37.4 µM | TGI [6]: > 100 µM | TGI [7]: > 100 µM

C=C1C(=O)C[C@@]23CCC[C@@]12CC(O)C3 (some centres not stated)
TGI [8]: 28.8 µM | TGI [1]: 33.2 µM | TGI [3]: > 80.7 µM | TGI [9]: 54.1 µM | TGI [4]: > 100 µM | TGI [5]: > 100 µM | TGI [6]: 38.1 µM

C=CC1(CCC(Br)C(C)(C)Cl)CO1 (configuration not stated)
TGI [8]: > 10 µM | TGI [1]: > 10 µM | TGI [2]: > 10 µM | TGI [3]: > 10 µM | TGI [9]: > 10 µM | TGI [4]: > 10 µM | TGI [5]: > 10 µM | TGI [6]: > 10 µM | TGI [7]: > 10 µM

Cc1cnc2[nH]c(-c3ccccc3)cc(=O)c2c1
TGI [8]: 1.41 µM | TGI [10]: 0.0595 µM | TGI [1]: 0.0732 µM | TGI [3]: > 14.4 µM | TGI [9]: > 47.5 µM | TGI [4]: 0.629 µM | TGI [6]: > 14 µM | TGI [7]: > 100 µM

C/C(=N\O)c1ccc(Nc2c3ccccc3nc3occc23)cc1
TGI [8]: 4.07 µM | TGI [1]: 0.72 µM | TGI [2]: 0.0781 µM | TGI [3]: > 21.3 µM | TGI [9]: 5.77 µM | TGI [4]: 7.34 µM | TGI [5]: 5.26 µM | TGI [6]: > 50 µM | TGI [7]: 25.7 µM

CC(=O)Nc1ccc(C(=O)N2N=C(C)/C(=C/c3cccc(O)c3)C2=O)cc1
TGI [8]: > 100 µM | TGI [1]: > 100 µM | TGI [3]: > 100 µM | TGI [9]: > 100 µM | TGI [4]: > 100 µM | TGI [5]: > 100 µM | TGI [6]: > 100 µM

c1ccc(COc2ncccc2C2SCCCS2)cc1
TGI [8]: > 100 µM | TGI [10]: > 100 µM | TGI [2]: > 100 µM | TGI [4]: > 100 µM | TGI [5]: > 100 µM | TGI [6]: > 100 µM | TGI [7]: > 100 µM

COc1cc2cc3c4c(cc(OC)c(OC)c4c2cc1OC)CCN3C(=O)OCCBr
TGI [8]: > 100 µM | TGI [1]: > 100 µM | TGI [3]: > 100 µM | TGI [9]: > 100 µM | TGI [4]: > 100 µM | TGI [5]: > 100 µM | TGI [6]: > 100 µM

CC(C)CC1c2[nH]c3ccccc3c2C[C@H]2C(=O)NC(COC(C)(C)C)C(=O)N12 (some centres not stated)
TGI [8]: 80.2 µM | TGI [10]: 37 µM | TGI [1]: 38.3 µM | TGI [2]: 39.9 µM | TGI [3]: 57.9 µM | TGI [4]: > 100 µM | TGI [5]: 35 µM | TGI [6]: 47.9 µM | TGI [7]: 43.4 µM

COc1ccc(NC(=O)C2=C(SC)C(=O)N=C2N)cc1
TGI [8]: > 100 µM | TGI [10]: > 100 µM | TGI [1]: > 100 µM | TGI [2]: > 100 µM | TGI [3]: > 100 µM | TGI [9]: > 100 µM | TGI [4]: > 100 µM | TGI [5]: > 100 µM | TGI [7]: > 100 µM

CC1=CC(c2ccccc2)n2c(nc3cc4ccccc4cc32)N1 (configuration not stated)
TGI [8]: > 100 µM | TGI [10]: > 100 µM | TGI [1]: > 100 µM | TGI [2]: > 100 µM | TGI [3]: > 100 µM | TGI [9]: > 100 µM | TGI [4]: > 100 µM | TGI [5]: > 100 µM | TGI [7]: > 100 µM

O=C(CCN1CCCCC1CO)Nc1ccc2c(c1)C(=O)c1ccc(NC(=O)CCN3CCCCC3CO)cc1C2=O (configuration not stated)
TGI [8]: 54 µM | TGI [1]: 31.6 µM | TGI [3]: 35.7 µM | TGI [9]: 24.2 µM | TGI [4]: 39.6 µM | TGI [5]: 62.6 µM | TGI [6]: 25.5 µM

COC(=O)CCc1ccc2c(c1)CC1(C2)Cc2ccc(CCC(=O)OC)cc2C1
TGI [8]: > 100 µM | TGI [10]: > 100 µM | TGI [1]: > 100 µM | TGI [2]: > 100 µM | TGI [3]: > 100 µM | TGI [4]: > 100 µM | TGI [5]: > 100 µM | TGI [6]: > 100 µM | TGI [7]: > 100 µM

COC1(OC)/C(=C(\N)C=O)NC(C)(C)N1O
TGI [1]: > 100 µM | TGI [2]: > 100 µM | TGI [3]: > 100 µM | TGI [9]: > 100 µM | TGI [4]: > 100 µM | TGI [5]: > 100 µM | TGI [6]: > 100 µM

COc1cc(/C=C2\C[C@H]3[C@@H]4CC=C5C[C@@H](N6CCCC6)CC[C@]5(C)[C@H]4CC[C@]3(C)[C@H]2OC(C)=O)cc(OC)c1OC
TGI [8]: 25.1 µM | TGI [10]: 35.1 µM | TGI [1]: 21.6 µM | TGI [2]: 26.8 µM | TGI [3]: 22.5 µM | TGI [4]: 28.7 µM | TGI [5]: 26.5 µM | TGI [6]: 27.8 µM | TGI [7]: 44.8 µM

C=C1c2nc3ccccc3n2C=C(c2ccccc2)N1c1ccc(OC)cc1
TGI [8]: 20.3 µM | TGI [2]: > 100 µM | TGI [3]: > 100 µM | TGI [9]: 24 µM | TGI [4]: 55 µM | TGI [5]: 25.3 µM | TGI [6]: > 100 µM

Fc1nc(F)nc(-c2c3ccccc3c3n2CCS3)n1
TGI [8]: > 100 µM | TGI [1]: > 100 µM | TGI [9]: > 100 µM | TGI [5]: > 100 µM | TGI [6]: > 100 µM

CCC1(O)CN(CCOC)[C@H]2C[C@@H]1C(=O)c1[nH]c3ccccc3c12 (some centres not stated)
TGI [8]: > 100 µM | TGI [10]: > 100 µM | TGI [1]: > 100 µM | TGI [2]: > 100 µM | TGI [3]: > 100 µM | TGI [9]: > 100 µM | TGI [4]: > 100 µM | TGI [5]: > 100 µM | TGI [6]: > 100 µM

COc1ccc([C@@]23CCC(=O)C[C@@H]2N(C)CC3)cc1OC
TGI [8]: > 100 µM | TGI [10]: > 100 µM | TGI [1]: > 100 µM | TGI [2]: > 100 µM | TGI [3]: > 100 µM | TGI [9]: > 100 µM | TGI [4]: > 100 µM | TGI [5]: > 100 µM | TGI [7]: > 100 µM

C=C1C(=O)O[C@H]2C(=O)[C@H](C)CCC[C@@](C)(O)/C=C\C[C@@]3(C)O[C@@H]3C[C@@H]12
TGI [8]: 25.9 µM | TGI [10]: 90.2 µM | TGI [1]: 28.4 µM | TGI [2]: 36.1 µM | TGI [9]: 76.1 µM | TGI [4]: 48 µM | TGI [5]: 17.5 µM | TGI [6]: 31.3 µM | TGI [7]: 42.3 µM

c1ccc(C/C(=N\Nc2nc3ccccc3o2)c2ccccn2)cc1
TGI [8]: 4.64 µM | TGI [10]: 29 µM | TGI [1]: 4.56 µM | TGI [2]: 12.7 µM | TGI [9]: 2.27 µM | TGI [4]: 1.42 µM | TGI [5]: 3.25 µM | TGI [6]: 3.67 µM | TGI [7]: > 33.5 µM

Cc1cccc(N2CCN(S(=O)(=O)c3ccc(Cl)cc3)C2=N)c1C
TGI [1]: > 100 µM | TGI [2]: > 100 µM | TGI [3]: > 100 µM | TGI [4]: > 100 µM | TGI [5]: > 100 µM | TGI [6]: > 100 µM | TGI [7]: > 100 µM

O=C(O)CCCc1nc2c(n1-c1ccccc1)C(=O)c1ccccc1C2=O
TGI [8]: > 100 µM | TGI [10]: > 100 µM | TGI [3]: > 100 µM | TGI [9]: > 100 µM | TGI [4]: > 100 µM | TGI [5]: > 100 µM | TGI [6]: > 100 µM | TGI [7]: > 100 µM

COC1(OC)N=C(N)C2(C#N)/C(=N/N(C)C)CC(C)C12C#N (configuration not stated)
TGI [8]: > 100 µM | TGI [10]: > 100 µM | TGI [1]: > 100 µM | TGI [2]: > 100 µM | TGI [3]: > 100 µM | TGI [4]: > 100 µM | TGI [5]: > 100 µM | TGI [6]: > 100 µM | TGI [7]: > 100 µM
